In assay [1] the test system is MMTV/Neu mice tumors. Nature of the assay: Spontaneous cancer development model. The format is in vivo. The method, then: The survival rate was recorded over up to 100 days. When the size of tumor was over 2,500 mm^3, the animal was euthanized (FIG. 20C).
Specifically, fluorescence immunohistochemical analysis was performed using anti-CD8 antibodies in the cancer tissues after the end of the experiment.
Accordingly, the present inventors investigated whether the combination of the drugs can increase the anti-cancer immunity even in the spontaneous cancer development model. […] After completion of the experiment, the present inventors isolated the spleen cells and treated with peptide against rat-Neu, an antigen expressed in the cancer of the spontaneous cancer development model, and after 48 hours, the culture supernatant was collected and IFN-γ was quantified using an ELISA kit (R&D Systems, Inc, USA).

Assay [2] concerns B16F10-Ova cells. Nature of the assay: Annexin V flow cytometry for direct death of cancer cells. The format is cell-based, mouse. The conditions noted are these: 30 μM, 24 hours. The protocol:
(§1) Specifically, the present inventors treated CT26.CL25 cells and B16F10-Ova cells with 30 μM of the ROCK inhibitor Y27632 for 24 hours, and performed flow cytometry analysis using FITC-anti-Annexin V antibodies (Abcam, USA). On the other hand, cells were treated with 10 μg of TRAIL, 0.25 μM of doxorubicin, 2.5 μM of doxorubicin, or 25 μM of doxorubicin, respectively, for 4 hours, as positive controls.
Background: In flow cytometry, cells or beads pass a laser one at a time.

The test system of assay [3] is CT26.CL25 cells. The description is as above. In kind it is cell-based, mouse. To be noted: 30 μM, 24 hours. The protocol:
as §1

For assay [4], the system named is CT26 cancer cells. Briefly: CT26 tumor model. The format is in vivo, mice. The conditions noted are these: fasudil 20 mg/kg; Y27632 10 mg/kg. The protocol:
The same procedure as described above was repeated except that CT26 was used instead of the CT26.CL25 colon cancer cell line and fasudil (Selleck Chemicals, USA) at 20 mg/kg of body weight or Y27632 at 10 mg/kg of body weight was administered.

Molecules are shown by their SMILES.

`C[C@@H](N)[C@H]1CC[C@H](C(=O)Nc2ccncc2)CC1` [Y27632]: the “anti-cancer immunity (IFN-γ of spleen cells treated with rat-Neu peptide)” value in assay [1] (48 hours) is “increased”. For the same compound, the “CD8+ T cells in tumor tissues (infiltration)” value in assay [1] (anti-CD8 fluorescence immunohistochemistry) is on record as “some T cell infiltration”. The “death of cancer cells (Annexin V)” value in assay [2] and in assay [3] was “not to increase the death of cancer cells” in each case. Besides, the “growth of cancer (size of the tumor)” value in assay [4] is given as “inhibited the growth of cancer”.

The record behind these values is patent US20190328721A1, “METHOD OF ACTIVATING DENDRITIC CELLS” (KOREA INSTITUTE OF SCIENCE AND TECHNOLOGY, priority 2018, published 2019).
